# Measurements from patent US9446039B2, “Aminoheteroaryl compounds as MTH1 inhibitors” (CEMM—FORSCHUNGSZENTRUM FÜR MOLEKULARE MEDIZIN GMBH, priority 2012, dated 2016).
# How the values were obtained:
# Assay type in all cases: binding
# [1] = molecular target: SW480 colon carcinoma cells lysate proteins (Homo sapiens, UniProt P38646); conditions: PreyGene HSPA9
# [2] = molecular target: SW480 colon carcinoma cells lysate proteins (Homo sapiens, UniProt Q9UHV9); conditions: PreyGene PFDN2
# [3] = molecular target: T1, SW480 colon carcinoma cells lysate proteins (Homo sapiens, UniProt Q16543); conditions: PreyGene CDC37
# T1 sequence (Q16543 1-378): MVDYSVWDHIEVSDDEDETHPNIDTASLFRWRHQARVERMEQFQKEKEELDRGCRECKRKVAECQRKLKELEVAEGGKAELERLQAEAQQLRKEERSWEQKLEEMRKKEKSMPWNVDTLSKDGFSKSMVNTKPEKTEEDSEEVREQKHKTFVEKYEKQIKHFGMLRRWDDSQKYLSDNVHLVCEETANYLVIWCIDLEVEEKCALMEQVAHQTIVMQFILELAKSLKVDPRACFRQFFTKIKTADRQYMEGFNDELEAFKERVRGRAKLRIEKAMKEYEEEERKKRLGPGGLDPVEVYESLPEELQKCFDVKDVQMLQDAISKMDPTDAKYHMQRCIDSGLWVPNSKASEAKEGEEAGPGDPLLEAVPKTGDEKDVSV
# [4] = molecular target: T2, SW480 colon carcinoma cells lysate proteins (Homo sapiens, UniProt P00558); conditions: PreyGene PGK1
# T2 sequence (P00558 1-417): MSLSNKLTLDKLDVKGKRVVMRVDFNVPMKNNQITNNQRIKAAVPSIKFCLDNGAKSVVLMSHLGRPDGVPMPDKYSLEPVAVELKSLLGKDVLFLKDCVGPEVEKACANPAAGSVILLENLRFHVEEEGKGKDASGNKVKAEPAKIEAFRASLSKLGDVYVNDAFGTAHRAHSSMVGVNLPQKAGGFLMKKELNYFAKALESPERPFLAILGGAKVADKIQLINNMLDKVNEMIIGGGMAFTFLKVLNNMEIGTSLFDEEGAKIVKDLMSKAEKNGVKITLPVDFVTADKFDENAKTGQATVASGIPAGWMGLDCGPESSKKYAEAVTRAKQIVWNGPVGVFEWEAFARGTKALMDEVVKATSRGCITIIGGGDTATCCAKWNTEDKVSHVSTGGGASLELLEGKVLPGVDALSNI
# [5] = molecular target: SW480 colon carcinoma cells lysate proteins (Homo sapiens, UniProt P31939); conditions: PreyGene ATIC
# [6] = molecular target: SW480 colon carcinoma cells lysate proteins (Homo sapiens, UniProt Q9Y490); conditions: PreyGene TLN1
# [7] = molecular target: T3, SW480 colon carcinoma cells lysate proteins (Homo sapiens, UniProt P08758); conditions: PreyGene ANXA5
# T3 sequence (P08758 1-320): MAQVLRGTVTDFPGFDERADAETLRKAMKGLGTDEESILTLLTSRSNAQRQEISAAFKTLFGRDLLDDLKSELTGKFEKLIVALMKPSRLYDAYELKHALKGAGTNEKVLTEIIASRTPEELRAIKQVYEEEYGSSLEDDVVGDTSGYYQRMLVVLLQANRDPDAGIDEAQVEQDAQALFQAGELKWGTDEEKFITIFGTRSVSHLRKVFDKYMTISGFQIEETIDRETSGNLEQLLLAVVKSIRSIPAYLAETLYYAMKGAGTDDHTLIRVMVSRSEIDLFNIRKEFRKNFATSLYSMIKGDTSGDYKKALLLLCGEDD
# [8] = molecular target: SW480 colon carcinoma cells lysate proteins (Homo sapiens, UniProt Q99623); conditions: PreyGene PHB2; SW480 cells
# [9] = molecular target: SW480 colon carcinoma cells lysate proteins (Homo sapiens, UniProt P18085); conditions: PreyGene ARF4
# [10] = molecular target: SW480 colon carcinoma cells lysate proteins (Homo sapiens, UniProt P10412); conditions: PreyGene HIST1H1E
# [11] = molecular target: T4, SW480 colon carcinoma cells lysate proteins (Homo sapiens, UniProt P30043); conditions: PreyGene BLVRB
# T4 sequence (P30043 1-206): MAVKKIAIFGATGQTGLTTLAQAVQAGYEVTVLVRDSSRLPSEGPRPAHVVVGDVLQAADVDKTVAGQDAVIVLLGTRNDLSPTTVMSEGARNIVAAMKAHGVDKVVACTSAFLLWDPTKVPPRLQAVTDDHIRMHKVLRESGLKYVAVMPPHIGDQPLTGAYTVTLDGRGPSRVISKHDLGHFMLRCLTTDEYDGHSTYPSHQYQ
# Sequence of SW480 colon carcinoma cells lysate proteins (Homo sapiens, UniProt P10412) (P10412 whole entry): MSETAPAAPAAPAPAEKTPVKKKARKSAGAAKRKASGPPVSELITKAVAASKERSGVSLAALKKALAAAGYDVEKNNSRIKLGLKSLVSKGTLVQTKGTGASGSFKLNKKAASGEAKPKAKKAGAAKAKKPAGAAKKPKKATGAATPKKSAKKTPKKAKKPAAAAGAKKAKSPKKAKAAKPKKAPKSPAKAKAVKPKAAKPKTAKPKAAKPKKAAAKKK
# Sequence of SW480 colon carcinoma cells lysate proteins (Homo sapiens, UniProt Q9UHV9) (Q9UHV9 whole entry): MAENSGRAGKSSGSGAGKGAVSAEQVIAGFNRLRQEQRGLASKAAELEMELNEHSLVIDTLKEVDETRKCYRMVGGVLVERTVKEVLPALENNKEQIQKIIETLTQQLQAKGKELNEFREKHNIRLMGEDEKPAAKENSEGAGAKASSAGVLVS
# Sequence of SW480 colon carcinoma cells lysate proteins (Homo sapiens, UniProt Q99623) (Q99623 whole entry): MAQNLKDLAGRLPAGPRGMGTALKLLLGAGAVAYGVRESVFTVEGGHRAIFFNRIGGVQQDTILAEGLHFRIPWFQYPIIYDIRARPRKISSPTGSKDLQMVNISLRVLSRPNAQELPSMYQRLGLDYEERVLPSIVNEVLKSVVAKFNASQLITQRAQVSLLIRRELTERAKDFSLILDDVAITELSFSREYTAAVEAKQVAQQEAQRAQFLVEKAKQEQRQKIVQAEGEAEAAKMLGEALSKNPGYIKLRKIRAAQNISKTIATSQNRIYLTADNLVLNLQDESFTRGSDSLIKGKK
# Sequence of SW480 colon carcinoma cells lysate proteins (Homo sapiens, UniProt P18085) (P18085 whole entry): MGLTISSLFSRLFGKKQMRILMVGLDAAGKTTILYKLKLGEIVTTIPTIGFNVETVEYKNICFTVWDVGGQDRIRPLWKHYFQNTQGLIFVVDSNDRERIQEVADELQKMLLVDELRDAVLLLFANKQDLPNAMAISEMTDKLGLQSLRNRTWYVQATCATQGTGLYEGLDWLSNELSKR
# Sequence of SW480 colon carcinoma cells lysate proteins (Homo sapiens, UniProt P31939) (P31939 whole entry): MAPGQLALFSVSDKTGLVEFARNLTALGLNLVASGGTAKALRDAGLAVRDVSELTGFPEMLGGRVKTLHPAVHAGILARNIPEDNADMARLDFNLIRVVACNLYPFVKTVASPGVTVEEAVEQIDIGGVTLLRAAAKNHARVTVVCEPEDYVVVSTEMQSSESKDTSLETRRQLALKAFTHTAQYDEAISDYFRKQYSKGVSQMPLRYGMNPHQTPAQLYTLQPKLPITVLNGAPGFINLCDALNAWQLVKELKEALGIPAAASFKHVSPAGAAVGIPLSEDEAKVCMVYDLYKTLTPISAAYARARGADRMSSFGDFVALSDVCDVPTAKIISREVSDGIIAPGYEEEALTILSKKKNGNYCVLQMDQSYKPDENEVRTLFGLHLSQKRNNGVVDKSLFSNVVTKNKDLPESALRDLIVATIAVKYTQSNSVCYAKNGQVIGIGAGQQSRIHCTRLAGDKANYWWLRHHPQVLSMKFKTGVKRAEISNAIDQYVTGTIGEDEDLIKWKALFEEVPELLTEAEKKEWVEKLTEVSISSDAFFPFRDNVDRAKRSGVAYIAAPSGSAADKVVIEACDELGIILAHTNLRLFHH
# Sequence of SW480 colon carcinoma cells lysate proteins (Homo sapiens, UniProt P38646) (P38646 47-679): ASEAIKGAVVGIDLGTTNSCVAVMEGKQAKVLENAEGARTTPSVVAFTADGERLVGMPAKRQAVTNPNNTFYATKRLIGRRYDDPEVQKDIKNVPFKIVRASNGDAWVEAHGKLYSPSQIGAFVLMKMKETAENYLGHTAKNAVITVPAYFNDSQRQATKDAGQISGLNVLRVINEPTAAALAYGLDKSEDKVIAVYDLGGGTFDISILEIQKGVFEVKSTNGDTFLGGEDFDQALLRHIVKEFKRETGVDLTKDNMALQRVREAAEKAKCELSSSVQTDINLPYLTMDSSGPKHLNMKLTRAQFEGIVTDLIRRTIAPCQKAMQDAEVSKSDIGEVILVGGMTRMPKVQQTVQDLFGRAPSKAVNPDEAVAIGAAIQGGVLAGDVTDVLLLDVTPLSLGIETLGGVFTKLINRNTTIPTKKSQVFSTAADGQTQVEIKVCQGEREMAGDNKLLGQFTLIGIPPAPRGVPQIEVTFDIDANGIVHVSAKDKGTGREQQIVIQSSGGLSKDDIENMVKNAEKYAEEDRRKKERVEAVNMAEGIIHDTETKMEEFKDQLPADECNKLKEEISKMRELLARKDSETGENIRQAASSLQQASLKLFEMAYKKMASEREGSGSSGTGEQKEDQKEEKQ
# Sequence of SW480 colon carcinoma cells lysate proteins (Homo sapiens, UniProt Q9Y490) (Q9Y490 whole entry): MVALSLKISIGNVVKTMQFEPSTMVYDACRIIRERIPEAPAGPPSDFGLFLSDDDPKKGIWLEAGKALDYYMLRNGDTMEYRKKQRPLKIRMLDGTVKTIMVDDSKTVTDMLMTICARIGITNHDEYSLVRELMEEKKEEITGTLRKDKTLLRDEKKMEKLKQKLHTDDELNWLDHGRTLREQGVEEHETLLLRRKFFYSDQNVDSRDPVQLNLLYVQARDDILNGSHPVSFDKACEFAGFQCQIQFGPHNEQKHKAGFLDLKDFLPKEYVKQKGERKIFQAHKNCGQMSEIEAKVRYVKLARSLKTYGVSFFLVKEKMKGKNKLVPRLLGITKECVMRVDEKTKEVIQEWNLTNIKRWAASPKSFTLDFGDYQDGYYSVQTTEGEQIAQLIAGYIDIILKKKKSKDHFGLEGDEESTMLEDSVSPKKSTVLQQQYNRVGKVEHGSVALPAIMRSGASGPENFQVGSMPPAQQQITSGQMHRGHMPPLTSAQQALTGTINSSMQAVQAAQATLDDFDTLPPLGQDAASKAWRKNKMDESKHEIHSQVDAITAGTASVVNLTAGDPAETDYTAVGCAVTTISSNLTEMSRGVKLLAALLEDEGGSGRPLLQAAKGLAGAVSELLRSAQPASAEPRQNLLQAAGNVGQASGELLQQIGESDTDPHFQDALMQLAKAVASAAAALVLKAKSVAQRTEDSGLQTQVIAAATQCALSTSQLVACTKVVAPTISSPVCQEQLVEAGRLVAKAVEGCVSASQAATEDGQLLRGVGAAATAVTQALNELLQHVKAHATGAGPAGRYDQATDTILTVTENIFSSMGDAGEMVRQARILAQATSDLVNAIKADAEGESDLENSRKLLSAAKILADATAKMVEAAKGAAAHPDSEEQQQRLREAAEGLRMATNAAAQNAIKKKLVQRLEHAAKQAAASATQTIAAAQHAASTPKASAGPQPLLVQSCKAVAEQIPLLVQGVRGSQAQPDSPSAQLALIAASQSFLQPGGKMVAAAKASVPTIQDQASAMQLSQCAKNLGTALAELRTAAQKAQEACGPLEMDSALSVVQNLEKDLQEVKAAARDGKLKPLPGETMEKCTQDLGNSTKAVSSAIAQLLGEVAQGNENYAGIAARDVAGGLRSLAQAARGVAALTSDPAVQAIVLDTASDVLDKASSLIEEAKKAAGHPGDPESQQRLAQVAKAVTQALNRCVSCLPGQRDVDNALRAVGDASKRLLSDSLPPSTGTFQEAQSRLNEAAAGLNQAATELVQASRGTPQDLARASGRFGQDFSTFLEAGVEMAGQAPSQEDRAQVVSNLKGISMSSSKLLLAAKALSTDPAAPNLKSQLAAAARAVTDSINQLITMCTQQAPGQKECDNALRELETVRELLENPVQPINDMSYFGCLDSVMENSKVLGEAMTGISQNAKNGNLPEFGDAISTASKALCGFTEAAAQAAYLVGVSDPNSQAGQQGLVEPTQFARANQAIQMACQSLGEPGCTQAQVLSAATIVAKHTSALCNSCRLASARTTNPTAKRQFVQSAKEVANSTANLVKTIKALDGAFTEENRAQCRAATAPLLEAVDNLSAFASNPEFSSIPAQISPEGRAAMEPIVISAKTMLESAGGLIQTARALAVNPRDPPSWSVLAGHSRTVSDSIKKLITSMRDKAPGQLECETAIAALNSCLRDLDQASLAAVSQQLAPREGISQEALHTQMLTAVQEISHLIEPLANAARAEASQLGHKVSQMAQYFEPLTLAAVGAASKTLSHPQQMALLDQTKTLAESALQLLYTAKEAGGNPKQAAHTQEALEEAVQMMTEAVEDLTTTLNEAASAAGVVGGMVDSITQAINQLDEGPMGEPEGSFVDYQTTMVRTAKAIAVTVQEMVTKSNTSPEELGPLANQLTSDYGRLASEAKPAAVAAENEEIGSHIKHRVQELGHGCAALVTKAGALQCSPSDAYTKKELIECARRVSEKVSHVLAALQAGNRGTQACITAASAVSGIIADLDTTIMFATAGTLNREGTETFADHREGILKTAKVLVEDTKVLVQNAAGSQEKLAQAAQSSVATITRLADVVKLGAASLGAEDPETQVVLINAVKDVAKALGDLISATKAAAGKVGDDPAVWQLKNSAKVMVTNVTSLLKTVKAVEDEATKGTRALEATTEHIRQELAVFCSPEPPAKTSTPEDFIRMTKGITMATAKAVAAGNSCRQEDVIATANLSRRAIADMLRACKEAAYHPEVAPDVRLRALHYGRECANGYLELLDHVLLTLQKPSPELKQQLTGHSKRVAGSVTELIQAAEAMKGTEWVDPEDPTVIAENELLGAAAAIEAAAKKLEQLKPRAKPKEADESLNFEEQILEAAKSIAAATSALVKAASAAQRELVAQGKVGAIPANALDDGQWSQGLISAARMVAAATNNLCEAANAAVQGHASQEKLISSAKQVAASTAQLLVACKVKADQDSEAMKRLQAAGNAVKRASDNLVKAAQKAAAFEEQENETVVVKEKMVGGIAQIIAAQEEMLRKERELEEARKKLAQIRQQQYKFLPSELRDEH
smiles,measurement,setting,value
C[C@H](Oc1cc(-c2cnn(C3CCNCC3)c2)cnc1N)c1c(Cl)ccc(F)c1Cl [(5)-crizotinib],AvgP,[1],0.3567
same,SC.Exp. 1-1,[1],2
same,SC.Exp. 1-2,[1],3
same,SC.Exp. 2-1,[1],0
same,SC.Exp. 2-2,[1],0
same,Sum (SC.Exp.),[1],5
same,AvgP,[2],0.3862
same,SC.Exp. 1-1,[2],2
same,SC.Exp. 1-2,[2],2
same,SC.Exp. 2-1,[2],0
same,SC.Exp. 2-2,[2],0
same,Sum (SC.Exp.),[2],4
same,AvgP,[3],0.4343
same,SC.Exp. 1-1,[3],3
same,SC.Exp. 1-2,[3],3
same,SC.Exp. 2-1,[3],0
same,SC.Exp. 2-2,[3],0
same,Sum (SC.Exp.),[3],6
same,AvgP,[4],0.2466
same,SC.Exp. 1-1,[4],14
same,SC.Exp. 1-2,[4],12
same,SC.Exp. 2-1,[4],0
same,SC.Exp. 2-2,[4],0
same,Sum (SC.Exp.),[4],26
same,AvgP,[5],0.4369
same,SC.Exp. 1-1,[5],3
same,SC.Exp. 1-2,[5],4
same,SC.Exp. 2-1,[5],0
same,SC.Exp. 2-2,[5],0
same,Sum (SC.Exp.),[5],7
same,AvgP,[6],0.4939
same,SC.Exp. 1-1,[6],7
same,SC.Exp. 1-2,[6],7
same,SC.Exp. 2-1,[6],0
same,SC.Exp. 2-2,[6],0
same,Sum (SC.Exp.),[6],14
same,AvgP,[7],0.4332
same,SC.Exp. 1-1,[7],9
same,SC.Exp. 1-2,[7],6
same,SC.Exp. 2-1,[7],0
same,SC.Exp. 2-2,[7],0
same,Sum (SC.Exp.),[7],15
same,AvgP,[8],0
same,SC.Exp. 1-1,[8],9
same,SC.Exp. 1-2,[8],8
same,SC.Exp. 2-1,[8],3
same,SC.Exp. 2-2,[8],5
same,SC.Exp. Sum,[8],25
same,AvgP,[9],0.352
same,SC.Exp. 1-1,[9],3
same,SC.Exp. 1-2,[9],3
same,SC.Exp. 2-1,[9],0
same,SC.Exp. 2-2,[9],0
same,Sum (SC.Exp.),[9],6
same,AvgP,[10],0.2298
same,SC.Exp. 1-1,[10],0
same,SC.Exp. 1-2,[10],2
same,SC.Exp. 2-1,[10],0
same,SC.Exp. 2-2,[10],2
same,Sum (SC.Exp.),[10],4
same,AvgP,[11],0.1915
same,SC.Exp. 1-1,[11],0
same,SC.Exp. 1-2,[11],2
same,SC.Exp. 2-1,[11],0
same,SC.Exp. 2-2,[11],0
same,Sum (SC.Exp.),[11],2
